# Test results as given in patent publication US20250388529A1, “N-Substituted Phenylalkylamines and Their Use as Therapeutic Agents” (priority 2023, published 2025).
# “Also recorded” adds a separate entry of the source.
# What was measured:
# human Nav1.1 and Navβ1 [1] = molecular target: T1, human Nav1.1 and Navβ1 (Homo sapiens, UniProt P35498); assay: cell-based; details: for Peak INa Density @ −20 mV: I-V curve
# human Nav1.1 and Navβ1 [2] = molecular target: T1, human Nav1.1 and Navβ1; assay: Manual whole-cell patch clamp sodium current recording, HEK cells expressing hNav1.1 and Navβ1; type: cell-based; details: for reduction in Nav1.1 peak INa: after 3.9 minutes of perfusion
# Description: (§1) Cell lines: Human Embryonic Kidney (HEK) 293 cells stably expressing human VGSC a subunit Nav1.1 (GenBank accession number NP_008851.3) were a gift from Dr. Massimo Mantegazza. Human VGSC β1 subunit GenBank accession number NP_001028.1) cDNA was transfected into this line to generate a second, stable line. Cells were cultured in Dulbecco's Modified Eagle Medium containing (4.5 g/L D-glucose, L-glutamine, 110 mg/L sodium pyruvate, 200 μg/mL G418, 100 U/mL penicillin/streptomycin). All cells were maintained in an incubator at 37° C. with 5% CO2.
# Manual Sodium Current Recording: Sodium current (INa) was measured at room temperature using the manual whole-cell patch clamp technique with previously described electrophysiological methods (Chen et al., J Biol Chem., 2012; 287 (46): 39061-39069). Cells were plated on 12 mm diameter clear glass poly-D-lysine coated coverslips (Neuvitro) and used for electrophysiological recordings within 48 hours after plating. Cells were identified with an AIR upright confocal microscope (Nikon). Micropipettes were obtained from 1.5 mm outer diameter capillary glass tubing (Harvard Apparatus) using a P-97 horizontal puller (Sutter Instrument Co.). Micropipettes were then polished using a MF-830 micro forge (Narishige) to obtain a resistance between 2.0 to 5.0 M (2. The intracellular solution contained the following (in mM): 1 NaCl, 125 N-methyl-D-glucamine, 2 MgCl2, 10 EGTA, 40 HEPES, 5 phosphocreatine-tris, 2 Mg-ATP, 0.2 Na2-GTP, 0.1 leupeptin, 270-275 mOsm, pH 7.2 with H2SO4. Extracellular solution contained the following (in mM): 120 NaCl, 1 BaCl2, 2 MgCl2, 0.2 CdCl2, 1 CaCl2), 20 sucrose, 10 glucose, 10 HEPES, 10 tetraethylammonium chloride, 300-305 mOsm, pH 7.35 with NaOH. Signals were amplified using a Multiclamp 700B amplifier (Molecular Devices). Data were acquired with a Digidata 1440A interface (Molecular Devices) and analyzed using pClamp10 offline. Pipette and whole-cell capacitance were fully compensated, and series resistance was predicted and compensated at 50%. Signals were low pass-filtered at 10 kHz, and data were sampled at 20 kHz. Residual linear capacity and leak currents were eliminated using online P/4 subtraction. Gravity-powered perfusion of XOB was used in all manual patch clamp experiments with a flow rate of 2-3 mL/min. All manual whole-cell INa recorded under XOB conditions was conducted after 3.9 minutes of perfusion unless indicated otherwise.
# HiBiT-5-HT1A = molecular target: T2, HiBiT-5-HT1A (Homo sapiens, UniProt P08908); assay: cell-based; type: binding
# T2 construct: expressed in transfected cells; host or cells: HEK293 (transient)
# T2 sequence (P08908 whole entry): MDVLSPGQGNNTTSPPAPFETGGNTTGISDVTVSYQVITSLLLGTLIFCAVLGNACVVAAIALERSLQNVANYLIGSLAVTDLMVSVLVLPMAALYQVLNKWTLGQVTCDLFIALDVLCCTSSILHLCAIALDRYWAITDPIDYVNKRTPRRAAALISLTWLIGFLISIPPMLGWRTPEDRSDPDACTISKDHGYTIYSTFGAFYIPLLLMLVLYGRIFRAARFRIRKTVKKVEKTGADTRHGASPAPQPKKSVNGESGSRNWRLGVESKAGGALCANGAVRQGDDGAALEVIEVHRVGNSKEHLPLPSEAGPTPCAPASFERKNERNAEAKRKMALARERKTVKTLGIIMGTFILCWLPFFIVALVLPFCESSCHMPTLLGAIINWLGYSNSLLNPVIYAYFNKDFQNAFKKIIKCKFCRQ
# human Nav1.1 = human Nav1.1 (Homo sapiens, UniProt P35498); assay: Manual whole-cell patch clamp sodium current recording, HEK cells stably expressing human Nav1.1; type: cell-based; details: 10 μM
# Description: as §1
# Manual Sodium Current Recording: Sodium current (INa) was measured at room temperature using the manual whole-cell patch clamp technique with previously described electrophysiological methods (Chen et al., J Biol Chem., 2012; 287 (46): 39061-39069). Cells were plated on 12 mm diameter clear glass poly-D-lysine coated coverslips (Neuvitro) and used for electrophysiological recordings within 48 hours after plating. Cells were identified with an AIR upright confocal microscope (Nikon). […] Data were acquired with a Digidata 1440A interface (Molecular Devices) and analyzed using pClamp10 offline. […] All manual whole-cell INa recorded under XOB conditions was conducted after 3.9 minutes of perfusion unless indicated otherwise.
# HiBiT-5-HT2A = molecular target: T3, HiBiT-5-HT2A (Homo sapiens, UniProt P28223); assay: NanoBRET kinetic measurement of ligand binding to HiBiT-5-HT2A (Motulsky-Mahan)
# T3 construct: expressed in transfected cells; host or cells: HEK293 (transient)
# T3 sequence (P28223 whole entry): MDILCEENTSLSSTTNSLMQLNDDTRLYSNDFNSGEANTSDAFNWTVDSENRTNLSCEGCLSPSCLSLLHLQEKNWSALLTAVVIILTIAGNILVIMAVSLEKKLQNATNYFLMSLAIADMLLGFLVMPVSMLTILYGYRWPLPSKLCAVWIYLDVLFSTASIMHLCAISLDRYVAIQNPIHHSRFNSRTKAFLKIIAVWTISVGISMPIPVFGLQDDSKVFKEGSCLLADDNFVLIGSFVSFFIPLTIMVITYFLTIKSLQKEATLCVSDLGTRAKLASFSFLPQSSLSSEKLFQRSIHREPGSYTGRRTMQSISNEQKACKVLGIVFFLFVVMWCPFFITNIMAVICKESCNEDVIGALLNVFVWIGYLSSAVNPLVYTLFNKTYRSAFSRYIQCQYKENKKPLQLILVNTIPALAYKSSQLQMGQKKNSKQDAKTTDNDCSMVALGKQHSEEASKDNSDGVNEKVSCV
# [3] = Chance observation of local anesthetic effect upon contact with mucous membranes; type: in vivo
# HiBiT-5-HT2C = HiBiT-5-HT2C (Homo sapiens, UniProt P28335); assay: cell-based
# Sequence of HiBiT-5-HT2C (P28335 33-458): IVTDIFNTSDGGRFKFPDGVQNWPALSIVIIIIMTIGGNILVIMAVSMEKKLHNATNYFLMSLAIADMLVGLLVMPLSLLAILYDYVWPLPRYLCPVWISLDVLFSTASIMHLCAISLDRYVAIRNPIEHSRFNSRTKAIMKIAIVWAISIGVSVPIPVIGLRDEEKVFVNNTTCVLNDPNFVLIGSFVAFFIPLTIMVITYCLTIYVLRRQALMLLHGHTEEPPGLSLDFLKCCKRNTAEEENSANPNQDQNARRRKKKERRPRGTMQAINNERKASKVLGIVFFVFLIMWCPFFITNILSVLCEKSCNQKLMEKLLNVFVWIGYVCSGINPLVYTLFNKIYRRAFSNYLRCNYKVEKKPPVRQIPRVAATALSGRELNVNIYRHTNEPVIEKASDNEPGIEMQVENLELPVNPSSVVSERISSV
structure (smiles),measurement,setting,value
"COc1cc(CCNCCCCCCOCCCCc2ccccc2)c(OC)cc1Br [XOB, N-(4-bromo-2,5-dimethoxyphenethyl)-6-(4-phenylbutoxy)hexan-1-amine]",Bottom of concentration response curve (normalized peak INa inhibition),human Nav1.1 and Navβ1 [1],0.02
same,Hill Slope of concentration response curve on peak INa,human Nav1.1 and Navβ1 [1],1.45
same,Top of concentration response curve (normalized peak INa inhibition),human Nav1.1 and Navβ1 [1],0.88
same,effect on voltage-dependence of sodium conductance,human Nav1.1 and Navβ1 [1],no effect was observed
same,Normalized Peak INa Inhibition,"human Nav1.1 and Navβ1 [1]; 0.1 nM, peak protocol",−0.077 ± 0.08
same,Peak INa Density,"human Nav1.1 and Navβ1 [1]; 0.1 nM, peak protocol",−429.6 ± 50.7 pA/pF
same,Peak INa Density @ −20 mV,human Nav1.1 and Navβ1 [1]; 1 nM,−395.9 ± 56.0 pA/pF
same,Normalized Peak INa Inhibition,"human Nav1.1 and Navβ1 [1]; 1 nM, peak protocol",0.015 ± 0.03
same,Peak INa Density,"human Nav1.1 and Navβ1 [1]; 1 nM, peak protocol",−386.1 ± 56.6 pA/pF
same,Peak INa Density @ −20 mV,human Nav1.1 and Navβ1 [1]; 10 nM,−319.1 ± 50.5 pA/pF
same,Normalized Peak INa Inhibition,"human Nav1.1 and Navβ1 [1]; 10 nM, peak protocol",−0.011 ± 0.03
same,Peak INa Density,"human Nav1.1 and Navβ1 [1]; 10 nM, peak protocol",−311.1 ± 41.7 pA/pF
same,Peak INa Density @ −20 mV,human Nav1.1 and Navβ1 [1]; 100 nM,−258.3 ± 34.1 pA/pF
same,Normalized Peak INa Inhibition,"human Nav1.1 and Navβ1 [1]; 100 nM, peak protocol",0.13 ± 0.02
same,Peak INa Density,"human Nav1.1 and Navβ1 [1]; 100 nM, peak protocol",−276.0 ± 31.0 pA/pF
same,Peak INa Density @ −20 mV,human Nav1.1 and Navβ1 [1]; 300 nM,−235.1 ± 37.9 pA/pF
same,Normalized Peak INa Inhibition,"human Nav1.1 and Navβ1 [1]; 300 nM, peak protocol",0.08 ± 0.06
same,Peak INa Density,"human Nav1.1 and Navβ1 [1]; 300 nM, peak protocol",−259.2 ± 38.0 pA/pF
same,Peak INa Density @ −20 mV,human Nav1.1 and Navβ1 [1]; 500 nM,−269.2 ± 38.8 pA/pF
same,Normalized Peak INa Inhibition,"human Nav1.1 and Navβ1 [1]; 500 nM, peak protocol",0.05 ± 0.07
same,Peak INa Density,"human Nav1.1 and Navβ1 [1]; 500 nM, peak protocol",−284.6 ± 35.2 pA/pF
same,Peak INa Density @ −20 mV,human Nav1.1 and Navβ1 [1]; 1 μM,−320.5 ± 40.0 pA/pF
same,Normalized Peak INa Inhibition,"human Nav1.1 and Navβ1 [1]; 1 μM, peak protocol",0.12 ± 0.03
same,Peak INa Density,"human Nav1.1 and Navβ1 [1]; 1 μM, peak protocol",−319.1 ± 34.5 pA/pF
same,Activation Slope Factor,human Nav1.1 and Navβ1 [1]; 3 μM,6.18 ± 1.1 mV^−1
same,Activation V1/2,human Nav1.1 and Navβ1 [1]; 3 μM,−34.32 ± 1.8 mV
same,Capacitance,human Nav1.1 and Navβ1 [1]; 3 μM,11.17 ± 1.0 pF
same,Inactivation Slope Factor,human Nav1.1 and Navβ1 [1]; 3 μM,−6.41 ± 0.7 mV^−1
same,Inactivation V1/2,human Nav1.1 and Navβ1 [1]; 3 μM,−60.46 ± 1.5 mV
same,Peak INa Density @ −20 mV,human Nav1.1 and Navβ1 [1]; 3 μM,−149.4 ± 22.4 pA/pF
same,Normalized Peak INa Inhibition,"human Nav1.1 and Navβ1 [1]; 3 μM, peak protocol",0.36 ± 0.05
same,Peak INa Density,"human Nav1.1 and Navβ1 [1]; 3 μM, peak protocol",−187.1 ± 23.3 pA/pF
same,Peak INa Density @ −20 mV,human Nav1.1 and Navβ1 [1]; 5 μM,−115.6 ± 20.4 pA/pF
same,Normalized Peak INa Inhibition,"human Nav1.1 and Navβ1 [1]; 5 μM, peak protocol",0.46 ± 0.06
same,Peak INa Density,"human Nav1.1 and Navβ1 [1]; 5 μM, peak protocol",−171.3 ± 22.2 pA/pF
same,reduction of baseline peak INa,human Nav1.1 and Navβ1 [1]; 10 μM,73±3%
same,Peak INa Density @ −20 mV,"human Nav1.1 and Navβ1 [1]; 10 μM, step −120 mV to −20 mV",−17.46±3.1 pA/pF
same,Peak INa Density,"human Nav1.1 and Navβ1 [1]; 10 μM, peak protocol",−85.4 ± 12.9 pA/pF
same,Normalized Peak INa Inhibition,"human Nav1.1 and Navβ1 [1]; 10 μM, peak protocol, 1−(IDrug÷IReference)",0.73 ± 0.03
same,IC50,"human Nav1.1 and Navβ1 [1]; concentration response curve, peak protocol, read-out: IC50, inhibition of peak INa (VGSC)",4.29 µM
same,reduction in Nav1.1 peak INa,human Nav1.1 and Navβ1 [2]; 1 μM,35.3%
same,% Initial Peak INa,"human Nav1.1 and Navβ1 [2]; 1 μM, time 0 s, step −120 mV to 0 mV",100%
same,% Initial Peak INa,"human Nav1.1 and Navβ1 [2]; 1 μM, time 31.2 s",100.6%
same,% Initial Peak INa,"human Nav1.1 and Navβ1 [2]; 1 μM, time 62.4 s",93.0%
same,% Initial Peak INa,"human Nav1.1 and Navβ1 [2]; 1 μM, time 93.6 s",88.8%
same,% Initial Peak INa,"human Nav1.1 and Navβ1 [2]; 1 μM, time 124.8 s",87.0%
same,% Initial Peak INa,"human Nav1.1 and Navβ1 [2]; 1 μM, time 150.8 s",77.7%
same,% Initial Peak INa,"human Nav1.1 and Navβ1 [2]; 1 μM, time 182 s",75.1%
same,% Initial Peak INa,"human Nav1.1 and Navβ1 [2]; 1 μM, time 213.2 s",70.9%
same,% Initial Peak INa,"human Nav1.1 and Navβ1 [2]; 1 μM, time 234 s",64.7%
same,reduction in Nav1.1 peak INa,human Nav1.1 and Navβ1 [2]; 5 μM,95.7%
same,% Initial Peak INa,"human Nav1.1 and Navβ1 [2]; 5 μM, time 0 s, step −120 mV to 0 mV",100%
same,% Initial Peak INa,"human Nav1.1 and Navβ1 [2]; 5 μM, time 31.2 s",95.4%
same,% Initial Peak INa,"human Nav1.1 and Navβ1 [2]; 5 μM, time 62.4 s",40.0%
same,% Initial Peak INa,"human Nav1.1 and Navβ1 [2]; 5 μM, time 93.6 s",23.7%
same,% Initial Peak INa,"human Nav1.1 and Navβ1 [2]; 5 μM, time 124.8 s",11.2%
same,% Initial Peak INa,"human Nav1.1 and Navβ1 [2]; 5 μM, time 150.8 s",9.3%
same,% Initial Peak INa,"human Nav1.1 and Navβ1 [2]; 5 μM, time 182 s",5.4%
same,% Initial Peak INa,"human Nav1.1 and Navβ1 [2]; 5 μM, time 213.2 s",6.4%
same,% Initial Peak INa,"human Nav1.1 and Navβ1 [2]; 5 μM, time 234 s",4.3%
same,reduction in Nav1.1 peak INa,human Nav1.1 and Navβ1 [2]; 10 μM,98.6%
same,% Initial Peak INa,"human Nav1.1 and Navβ1 [2]; 10 μM, time 0 s, step −120 mV to 0 mV",100%
same,% Initial Peak INa,"human Nav1.1 and Navβ1 [2]; 10 μM, time 31.2 s",97.1%
same,% Initial Peak INa,"human Nav1.1 and Navβ1 [2]; 10 μM, time 62.4 s",94.8%
same,% Initial Peak INa,"human Nav1.1 and Navβ1 [2]; 10 μM, time 93.6 s",73.7%
same,% Initial Peak INa,"human Nav1.1 and Navβ1 [2]; 10 μM, time 124.8 s",28.5%
same,% Initial Peak INa,"human Nav1.1 and Navβ1 [2]; 10 μM, time 150.8 s",8.7%
same,% Initial Peak INa,"human Nav1.1 and Navβ1 [2]; 10 μM, time 182 s",2.9%
same,% Initial Peak INa,"human Nav1.1 and Navβ1 [2]; 10 μM, time 213.2 s",2.5%
same,% Initial Peak INa,"human Nav1.1 and Navβ1 [2]; 10 μM, time 234 s",1.4%
same,binding affinity at 5-HT1A (in words),HiBiT-5-HT1A,no measurable affinity; also recorded: negligible binding affinity
same,Ki,"HiBiT-5-HT1A; equilibrium competitive displacement, Cheng-Prusoff, read-out: KI (binding affinity) at 5-HT1A",> 10 µM
same,original baseline INa density at 0 mV recovered after washout,human Nav1.1; 10 minutes of washing out,17.5±3.64%
same,reduction of mean Nav1.1 peak INa density at 0 mV compared to baseline,"human Nav1.1; acute perfusion, three cells",94.1±1.31%
same,association rate at 5-HT2A relative to serotonin (in words),HiBiT-5-HT2A,two orders of magnitude slower
same,"association rate at 5-HT2A, fold slower than serotonin",HiBiT-5-HT2A,about 24 fold
same,local anesthetic effect,[3],profound and long-lasting local anesthetic effect
same,Ki,HiBiT-5-HT2C,> 10 µM
